Source: US6905865B1, “Detection of a gene, vatE, encoding an acetyltransferase inactivating streptogramin” (Institut Pasteur, priority 1999, dated 2005)

Columns and labels:
S. aureus RN4220 [pOX7] = assay: MIC of pristinamycin IIA for S. aureus RN4220 carrying the shuttle vector pOX7; assay type: cell-based; conditions: Staphylococcus aureus; S. aureus recipient RN4220 with empty shuttle vector pOX7
Experimental: (§1) A DNA fragment of 858 nt containing vatE (nt 104 to nt 961, Accession No. AF153312) was amplified from pIP1798 and inserted between the EcoRI and SmaI sites of the shuttle vector, pOX7 (11). The resulting plasmid, pIP1801, introduced by electroporation in the S. aureus recipient, RN4220 (15), conferred resistance to pristinamycin IIA (MICs: 2 μg/ml for RN4220 [pOX7] and 8 μg/ml for RN4220 [pIP1801]).

[1] = tested on: S. aureus RN4220 [pIP1801]; assay: MIC of pristinamycin IIA for S. aureus RN4220 carrying pIP1801 (vatE); assay type: cell-based; conditions: Staphylococcus aureus; S. aureus recipient RN4220 with pIP1801 (pOX7 carrying vatE), introduced by electroporation
Experimental: as §1

Question: What does the source list for `CC1=C\[C@@H](O)CC(=O)Cc2nc(co2)C(=O)N2CCC=C2C(=O)O[C@H](C(C)C)[C@H](C)/C=C/C(=O)NC\C=C\1` [pristinamycin IIA]?
Answer: MIC (S. aureus RN4220 [pOX7]): 2 mg/L; MIC [1]: 8 mg/L
